Results: US9637470B2, “Treatment for substance use disorders and stress disorders” (Baylor College of Medicine, priority 2013, dated 2017)
Where two headings read alike, the source gives them in different places.

Key:
[1] = molecular target: T1, serotonin transporter (Rattus norvegicus, UniProt P31652); assay: Monoamine uptake into rat synaptosomes, serotonin; format: biochemical
T1 construct: from tissue; host or cells: rat synaptosomes

[2] = molecular target: T2, norepinephrine transporter (Rattus norvegicus, UniProt Q63380); assay: Monoamine uptake into rat synaptosomes, norepinephrine; format: biochemical
T2 construct: from tissue; host or cells: rat synaptosomes
T2 sequence (Q63380 1-617): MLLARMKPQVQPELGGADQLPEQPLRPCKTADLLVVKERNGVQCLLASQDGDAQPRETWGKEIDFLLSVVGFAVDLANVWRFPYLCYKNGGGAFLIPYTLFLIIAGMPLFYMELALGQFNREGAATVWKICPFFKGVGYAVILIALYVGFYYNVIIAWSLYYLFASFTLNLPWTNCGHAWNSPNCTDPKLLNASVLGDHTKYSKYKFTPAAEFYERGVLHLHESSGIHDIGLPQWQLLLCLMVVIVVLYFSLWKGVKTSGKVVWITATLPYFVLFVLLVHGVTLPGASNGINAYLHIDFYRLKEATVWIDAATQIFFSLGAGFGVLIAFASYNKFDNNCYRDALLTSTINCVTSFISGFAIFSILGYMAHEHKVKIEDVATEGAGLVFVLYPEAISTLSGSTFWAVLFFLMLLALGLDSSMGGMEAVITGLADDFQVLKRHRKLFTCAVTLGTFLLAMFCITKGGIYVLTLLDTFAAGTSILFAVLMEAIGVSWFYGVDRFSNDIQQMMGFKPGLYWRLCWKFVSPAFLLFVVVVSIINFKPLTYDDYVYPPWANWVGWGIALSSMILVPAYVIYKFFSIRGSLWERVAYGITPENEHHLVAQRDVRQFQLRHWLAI

[3] = molecular target: T3, dopamine transporter (Rattus norvegicus, UniProt P23977); assay: Monoamine uptake into rat synaptosomes, dopamine; format: biochemical
T3 construct: from tissue; host or cells: rat synaptosomes
T3 sequence (P23977 whole entry): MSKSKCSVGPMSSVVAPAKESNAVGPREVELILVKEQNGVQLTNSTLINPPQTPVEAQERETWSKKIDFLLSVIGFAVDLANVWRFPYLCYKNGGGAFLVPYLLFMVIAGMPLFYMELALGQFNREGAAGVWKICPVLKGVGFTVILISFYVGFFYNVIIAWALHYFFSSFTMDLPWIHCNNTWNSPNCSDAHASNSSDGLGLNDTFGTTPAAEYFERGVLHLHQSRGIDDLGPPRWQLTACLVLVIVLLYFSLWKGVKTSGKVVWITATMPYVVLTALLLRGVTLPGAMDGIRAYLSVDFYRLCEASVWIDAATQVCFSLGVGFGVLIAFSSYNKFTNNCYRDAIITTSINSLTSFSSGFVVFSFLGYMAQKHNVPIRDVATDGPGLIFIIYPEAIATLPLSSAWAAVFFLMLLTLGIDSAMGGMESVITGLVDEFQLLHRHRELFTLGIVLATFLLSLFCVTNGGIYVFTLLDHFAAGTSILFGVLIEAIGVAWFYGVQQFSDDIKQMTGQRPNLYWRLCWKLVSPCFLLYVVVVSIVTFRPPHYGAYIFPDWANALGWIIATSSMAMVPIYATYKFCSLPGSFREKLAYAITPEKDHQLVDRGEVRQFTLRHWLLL

[4] = test system: synaptic levels of serotonin, norepinephrine, and dopamine in rat prefrontal cortex; assay: Synaptic monoamine levels in rat prefrontal cortex after oral treatment; format: in vivo; settings: greater effects on serotonin and norepinephrine than dopamine
[5] = test system: alcohol preferring P rats; assay: Binge alcohol / sucrose operant drinking in alcohol preferring P rats; format: in vivo, rat
Description: Animals were habituated to the gavage procedures by administering deionized water alone over a number of experimental sessions.
Animals were tested in 30 individual standard operant chambers (Coulbourn Instruments, Inc., Lehigh Valley, Pa.). The operant apparatus contained two levers, two dipper manipulanda, a cue light over each lever, and a house light. The dipper cup delivered either 10% (v/v) alcohol or 1% (w/v) sucrose reinforcers in a volume of 0.1 ml. To initiate excessive “binge” alcohol drinking, rats were adapted to a 12 h:12 h light/dark cycle which began at 4:30 pm (lights off) and lasted to 4:30 am (lights on). Rats were trained to orally self-administer EtOH for daily 30 min sessions under an FR1 schedule employing the sucrose fading technique. After a period of stabilization, the response requirement was then increased to an FR4 schedule. Responding was considered stable when responses were within ±20% of the average responses for five consecutive days, which took approximately 8 days. During the stabilization procedures, the animals were never deprived of food or fluid. Other cohorts of rats were given a 1% (w/v) concentration of sucrose and trained in an identical manner under the FR1, then FR4, schedule. […] Self-administration was assessed in 3×30 min FR4 operant sessions spaced 1 h apart during the dark cycle. […]

[6] = test system: 56 receptors, channels, and transporters; assay: Receptor binding studies, panel of 56 receptors, channels, and transporters; settings: 10 μM; all sites except σ1 and 5-HT2B
Description: (§1) Binding at σ1 is not problematic, as SSRIs are known to have similar activities.

[7] = molecular target: 5-HT2B (Homo sapiens, UniProt P41595); assay: Functional activity at 5-HT2B receptor
Sequence of 5-HT2B (P41595 whole entry, species assumed): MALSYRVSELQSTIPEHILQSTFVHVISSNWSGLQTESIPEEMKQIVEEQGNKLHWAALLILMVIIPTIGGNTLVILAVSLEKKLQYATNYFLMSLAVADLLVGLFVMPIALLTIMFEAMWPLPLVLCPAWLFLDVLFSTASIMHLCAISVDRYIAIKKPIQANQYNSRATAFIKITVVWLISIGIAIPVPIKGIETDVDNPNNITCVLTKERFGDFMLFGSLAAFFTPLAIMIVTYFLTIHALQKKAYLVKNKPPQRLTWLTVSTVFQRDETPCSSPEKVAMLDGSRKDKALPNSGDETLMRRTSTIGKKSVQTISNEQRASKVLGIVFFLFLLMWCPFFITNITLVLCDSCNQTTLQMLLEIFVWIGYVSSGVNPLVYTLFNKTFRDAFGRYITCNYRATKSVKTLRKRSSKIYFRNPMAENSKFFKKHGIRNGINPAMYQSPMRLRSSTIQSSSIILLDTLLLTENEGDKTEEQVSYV
Description: as §1

[8] = Metabolic stability in human liver microsomes; format: in vitro ADME
[9] = Metabolic stability in hepatocytes; format: in vitro ADME, human
[10] = PK parameters in monkey; settings: in vivo
[11] = molecular target: CYP450 2C8 (Homo sapiens, UniProt P10632); assay: CYP450 inhibition, 2C8; format: in vitro ADME
Sequence of CYP450 2C8 (P10632 whole entry): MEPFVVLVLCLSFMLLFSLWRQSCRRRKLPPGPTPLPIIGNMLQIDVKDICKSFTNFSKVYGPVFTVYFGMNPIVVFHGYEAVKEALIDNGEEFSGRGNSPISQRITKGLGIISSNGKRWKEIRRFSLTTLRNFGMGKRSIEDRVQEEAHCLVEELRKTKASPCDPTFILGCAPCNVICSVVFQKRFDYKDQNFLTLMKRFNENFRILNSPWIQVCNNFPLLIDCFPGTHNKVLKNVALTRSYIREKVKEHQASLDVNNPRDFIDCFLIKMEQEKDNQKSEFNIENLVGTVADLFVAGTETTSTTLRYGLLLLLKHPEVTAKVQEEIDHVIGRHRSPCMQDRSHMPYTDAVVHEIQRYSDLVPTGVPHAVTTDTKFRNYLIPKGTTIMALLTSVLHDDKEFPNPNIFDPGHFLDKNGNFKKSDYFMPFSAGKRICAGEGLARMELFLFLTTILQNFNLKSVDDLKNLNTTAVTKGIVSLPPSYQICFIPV

[12] = molecular target: CYP450 2C9 (Homo sapiens, UniProt P11712); assay: CYP450 inhibition, 2C9; format: in vitro ADME
Sequence of CYP450 2C9 (P11712 whole entry): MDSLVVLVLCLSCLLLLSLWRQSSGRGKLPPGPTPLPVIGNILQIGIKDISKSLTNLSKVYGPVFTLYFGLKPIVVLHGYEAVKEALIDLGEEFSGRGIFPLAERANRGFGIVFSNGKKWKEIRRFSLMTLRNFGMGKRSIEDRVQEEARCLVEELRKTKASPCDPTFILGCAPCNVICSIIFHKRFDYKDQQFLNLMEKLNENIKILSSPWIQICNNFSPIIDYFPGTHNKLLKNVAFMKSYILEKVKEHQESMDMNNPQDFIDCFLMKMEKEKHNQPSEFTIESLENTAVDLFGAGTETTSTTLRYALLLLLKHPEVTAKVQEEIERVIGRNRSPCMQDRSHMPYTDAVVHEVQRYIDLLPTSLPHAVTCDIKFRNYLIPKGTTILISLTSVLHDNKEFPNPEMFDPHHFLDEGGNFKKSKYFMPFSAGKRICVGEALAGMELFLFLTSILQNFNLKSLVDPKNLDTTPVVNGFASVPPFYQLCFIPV

[13] = molecular target: hERG channel (Homo sapiens, UniProt Q12809); assay: hERG channel inhibition; settings: accompanied by offsetting inhibition of other ion channels
Sequence of hERG channel (Q12809 whole entry): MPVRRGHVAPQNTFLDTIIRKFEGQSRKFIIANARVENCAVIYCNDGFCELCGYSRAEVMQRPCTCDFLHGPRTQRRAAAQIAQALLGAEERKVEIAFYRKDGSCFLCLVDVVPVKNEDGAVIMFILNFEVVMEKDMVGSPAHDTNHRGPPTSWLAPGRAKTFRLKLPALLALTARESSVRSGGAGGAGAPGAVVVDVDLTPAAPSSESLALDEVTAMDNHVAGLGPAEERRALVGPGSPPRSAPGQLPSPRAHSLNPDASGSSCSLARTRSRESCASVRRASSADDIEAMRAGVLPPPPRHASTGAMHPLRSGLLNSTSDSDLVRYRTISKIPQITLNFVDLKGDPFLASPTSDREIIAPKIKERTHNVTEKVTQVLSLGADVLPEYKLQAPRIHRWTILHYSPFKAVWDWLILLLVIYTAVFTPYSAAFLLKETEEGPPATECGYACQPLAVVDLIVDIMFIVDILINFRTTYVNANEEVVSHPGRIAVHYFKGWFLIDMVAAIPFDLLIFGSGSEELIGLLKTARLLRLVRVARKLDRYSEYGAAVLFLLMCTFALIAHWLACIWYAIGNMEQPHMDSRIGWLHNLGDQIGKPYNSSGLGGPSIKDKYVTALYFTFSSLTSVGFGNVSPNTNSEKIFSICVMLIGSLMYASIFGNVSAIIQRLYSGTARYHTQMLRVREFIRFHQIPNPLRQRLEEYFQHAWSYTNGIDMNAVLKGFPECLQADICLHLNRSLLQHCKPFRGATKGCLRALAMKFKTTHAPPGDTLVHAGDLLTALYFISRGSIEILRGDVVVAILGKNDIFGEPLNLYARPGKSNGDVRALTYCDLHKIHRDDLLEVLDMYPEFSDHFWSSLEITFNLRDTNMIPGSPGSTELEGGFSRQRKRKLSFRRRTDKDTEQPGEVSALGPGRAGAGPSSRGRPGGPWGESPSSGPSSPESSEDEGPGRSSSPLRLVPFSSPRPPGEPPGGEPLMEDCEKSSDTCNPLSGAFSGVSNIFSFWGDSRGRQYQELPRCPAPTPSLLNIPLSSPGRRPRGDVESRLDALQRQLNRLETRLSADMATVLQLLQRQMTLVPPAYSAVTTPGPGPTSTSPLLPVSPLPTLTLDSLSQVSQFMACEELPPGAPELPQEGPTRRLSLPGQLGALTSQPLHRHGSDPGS

[14] = Chronic (13 week) toxicity testing in rats; settings: rat, in vivo, read-out: no adverse effects level (NOAEL)
[15] = Chronic (13 week) toxicity testing in dogs; settings: dog, in vivo, read-out: no adverse effects level (NOAEL)
[16] = test system: rats; assay: Irwin test for neurotoxicity in rats; format: in vivo, rat; settings: up to 90 mg/kg
[17] = Teratogenicity study (segment II) in rats; settings: rat, in vivo
[18] = ADM&E studies: stability and protein binding; format: in vitro ADME
[19] = test system: Sprague-Dawley rats; assay: Methamphetamine-induced locomotor activation in rats; format: in vivo, rat; settings: for locomotor activity, EC2 alone versus saline: 30.0 mg/kg IP; for METH-induced locomotor activation: EC2 30.0 mg/kg IP + METH 1 mg/kg
Description: Adult male Sprague-Dawley rats (n=5-6/group, Harlan Sprague-Dawley Inc., Indianapolis, Ind., USA) were used in this study. Rats were housed three per cage in polypropylene cages in a temperature- and humidity-controlled room maintained on a 12:12 light/dark cycle (lights on at 7:00). Food and water were available ad libitum. Protocols were approved by the Baylor College of Medicine Institutional Animal Care and Use Committee and followed the “Principles of Laboratory Animal Care” (NIH publication No. 85-23, revised 1996). Facilities were accredited by the American Association of Laboratory Animal Care.
The TruScan photobeam activity system (Coulbourn Instruments, Allentown, Pa., USA) was used to measure horizontal and vertical distance traveled in centimeters (cm). This system includes a clear arena (16″L×16″W×15.5″D) that had two sets of infrared sensors with one located at floor level and the other 2.5″ above floor level. Data from beam breaks were tabulated and analyzed by a PC computer and using a Coulbourn Instruments software system (TruScan 2.03).
Drug solutions were prepared fresh daily. To test the effects of EC2 on METH locomotor activation, groups of rats were administered vehicle (saline), METH (1 mg/kg), EC2 (30.0 mg/kg) and EC2+METH. Pretreatment time was 30 min for EC2.
Testing began on the next day (day 1) and continued for the next five days. Rats were administered drugs according to group and immediately placed in the activity chambers for 60 min.
Data were first assessed with normality (Shapiro-Wilk) and equal variance tests. Distance traveled (cm), which reflects ambulatory activity, and vertical distance (cm) were the primary dependent variables analyzed. Habituation locomotor activity (baseline habituation, HAB) was assessed using a One-Way ANOVA with treatment as the main factor, and Student-Newman-Keuls Method was used for post-hoc comparisons. […] Dunn's method was used for post-hoc multiple comparisons between groups. Data are presented as mean±SEM and significant p values set at <0.05.
The preceding example was continued for 5 days. Data from day 5 passed normality and equal variance tests and were analyzed with One-Way ANOVA with treatment as the main factor. Post-hoc pairwise multiple comparison procedures were performed using Student-Newman Keuls Method was used to determine group differences. Data are presented as mean±SEM and significant p values set at <0.05.

[20] = test system: micronucleus; assay: Genotoxicity testing, micronucleus

T1 sequence (P31652 whole entry): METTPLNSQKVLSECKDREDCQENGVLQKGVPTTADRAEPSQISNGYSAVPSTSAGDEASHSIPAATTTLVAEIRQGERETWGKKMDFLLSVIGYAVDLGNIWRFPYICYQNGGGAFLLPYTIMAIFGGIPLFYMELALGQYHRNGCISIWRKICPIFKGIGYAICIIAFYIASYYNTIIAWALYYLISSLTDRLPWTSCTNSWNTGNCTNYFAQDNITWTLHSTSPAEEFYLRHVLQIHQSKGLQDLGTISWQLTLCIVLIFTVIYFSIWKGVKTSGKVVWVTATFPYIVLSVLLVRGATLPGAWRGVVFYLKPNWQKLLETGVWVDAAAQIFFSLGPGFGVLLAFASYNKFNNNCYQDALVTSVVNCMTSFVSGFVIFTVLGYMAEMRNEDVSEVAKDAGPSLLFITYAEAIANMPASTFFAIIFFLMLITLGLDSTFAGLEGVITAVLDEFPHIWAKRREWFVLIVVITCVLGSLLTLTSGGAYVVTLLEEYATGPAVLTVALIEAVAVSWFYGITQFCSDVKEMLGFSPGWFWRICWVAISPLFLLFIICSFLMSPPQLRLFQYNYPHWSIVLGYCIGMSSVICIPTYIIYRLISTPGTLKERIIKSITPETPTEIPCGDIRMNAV

## c1ccc2cc([C@H]([C@H]3CCCNC3)n3ncnn3)ccc2c1 [Example Compound 2, (3S)-3-[(S)-naphthalen-2-yl(2H-tetrazol-2-yl)methyl]piperidine]
[1]
  IC50: 37 nM
[2]
  IC50: 65 nM
[3]
  IC50: 74 nM
[4]
  effect on synaptic levels of serotonin, norepinephrine, and dopamine: clear effects on all three monoamines
[5]; oral 15, 30, 40, 60, or 80 mg/kg, p<0.001
  binge operant responding for alcohol: significantly reduced
[5]; oral, p>0.05, except for the 80 mg/kg dose
  binge sucrose responding: failed to significantly reduce
[6]
  binding at the other sites of the panel: no significant binding
[7]
  activity at 5-HT2B receptor: antagonist activity
[8]
  metabolic stability: high
[9]
  metabolic stability: high
[10]
  half-life: 5.8 h
[10]; po, monkeys
  bioavailability: 10%
[11]
  inhibition of CYP450 2C8: does not inhibit
[12]
  inhibition of CYP450 2C9: does not inhibit
[13]
  hERG channel inhibition: moderate
[14]
  NOAEL at 13 week: 60 mg/kg
[15]
  NOAEL at 13 week: 6 mg/kg
[16]
  Irwin test for neurotoxicity: negative
[17]; read-out: NOAEL fetal development
  NOAEL: 90 mg/kg/day
[17]; read-out: NOAEL fetal growth
  NOAEL: 30 mg/kg/day
[17]; read-out: NOAEL fetal viability
  NOAEL: 90 mg/kg/day
[17]; read-out: NOAEL maternal toxicity
  NOAEL: 30 mg/kg/day
[18]
  protein binding: modest
  stability: stable
[19]; day 5, both activity measures
  locomotor activity, EC2 alone versus saline: did not differ from saline
[19]; over 5 days, both activity measures
  locomotor activity, EC2 alone versus saline: did not differ from saline
[19]; day 5, more apparent on vertical distance
  METH-induced locomotor activation: significantly attenuated
[19]; over 5 days, more apparent on vertical distance
  METH-induced locomotor activation: significantly attenuated
[20]
  genotoxicity, micronucleus: negative
